Results taken from patent publication US20020026053A1, “Novel 3-(substituted) -2- indolinones compounds and use thereof as inhibitors of protein kinase activity” (priority 1997, published 2002).

These molecules were tested against T1, Met receptor (EGFR/Met chimeric cells, EMR) (Homo sapiens, UniProt P08581) (assay: Met Autophosphorylation Assay).
T1 construct: expressed in transfected cells; the other entry of the earlier key: EGFR (P00533, Epidermal growth factor receptor)
Type: biochemical
How it was run: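 Met phosphorylation was measured by capture ELISA. Lysates (90 μg/100 μl, HNTG plus 1 mM PMSF) from transiently transfected EGFR/Met chimera (EMR) cells were bound for 60 min at room temperature to wells holding rabbit anti-Met (C-28) on goat anti-rabbit coat. Phosphotyrosine was the read-out.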

T1 sequence (P08581 with tags, fused parts or gaps): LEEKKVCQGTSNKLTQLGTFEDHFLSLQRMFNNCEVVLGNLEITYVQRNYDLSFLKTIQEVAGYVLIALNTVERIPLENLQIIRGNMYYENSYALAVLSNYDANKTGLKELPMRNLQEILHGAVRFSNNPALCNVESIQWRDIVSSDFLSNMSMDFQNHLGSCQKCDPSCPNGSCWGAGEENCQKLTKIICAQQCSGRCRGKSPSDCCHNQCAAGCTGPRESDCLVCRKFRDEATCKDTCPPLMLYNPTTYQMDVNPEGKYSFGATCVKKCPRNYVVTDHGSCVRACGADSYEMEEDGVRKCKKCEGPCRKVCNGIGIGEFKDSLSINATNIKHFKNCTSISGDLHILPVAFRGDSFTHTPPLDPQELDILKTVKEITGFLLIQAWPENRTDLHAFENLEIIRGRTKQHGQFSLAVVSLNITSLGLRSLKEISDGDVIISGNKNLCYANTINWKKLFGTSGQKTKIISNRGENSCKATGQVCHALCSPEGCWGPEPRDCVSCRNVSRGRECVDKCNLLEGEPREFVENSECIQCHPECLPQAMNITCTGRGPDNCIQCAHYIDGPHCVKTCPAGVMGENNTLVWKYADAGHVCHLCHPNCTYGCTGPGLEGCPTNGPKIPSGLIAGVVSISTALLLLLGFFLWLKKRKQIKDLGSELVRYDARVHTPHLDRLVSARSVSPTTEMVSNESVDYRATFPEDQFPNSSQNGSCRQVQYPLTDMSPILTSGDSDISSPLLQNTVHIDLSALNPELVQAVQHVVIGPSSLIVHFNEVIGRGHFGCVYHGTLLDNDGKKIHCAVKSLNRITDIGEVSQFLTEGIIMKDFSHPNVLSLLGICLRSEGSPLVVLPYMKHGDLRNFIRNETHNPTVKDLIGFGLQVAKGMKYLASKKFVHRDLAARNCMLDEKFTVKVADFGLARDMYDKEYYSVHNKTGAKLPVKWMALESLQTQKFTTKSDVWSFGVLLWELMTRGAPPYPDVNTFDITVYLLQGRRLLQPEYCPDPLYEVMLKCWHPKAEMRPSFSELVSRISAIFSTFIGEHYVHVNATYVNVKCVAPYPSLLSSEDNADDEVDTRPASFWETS

Row | Structure (SMILES) | Met Kinase % Inhibition (P.130) [%]
1 | O=C1Nc2ccc(S(=O)(=O)Nc3ccc(C(F)(F)F)cc3)cc2C1=Cc1cccc(F)c1O [10734/E08] | 89.1
2 | O=C1Nc2ccc(S(=O)(=O)Nc3ccc(C(F)(F)F)cc3)cc2C1=Cc1ccc(O)c(Br)c1 [10734/E09] | 96.2
3 | CC(C)(C)c1ccc(C=C2C(=O)Nc3ccc(S(=O)(=O)Nc4ccc(C(F)(F)F)cc4)cc32)cc1 [10734/E10] | 27.9
4 | O=C1Nc2ccc(S(=O)(=O)Nc3ccc(C(F)(F)F)cc3)cc2C1=Cc1ccc(Br)s1 [10734/E11] | 67.1
5 | CCOc1cccc(C=C2C(=O)Nc3ccc(S(=O)(=O)N4CCOCC4)cc32)c1O [10734/F02] | 55.0
6 | O=C1Nc2ccc(S(=O)(=O)N3CCOCC3)cc2C1=Cc1cc(Cl)cc(Cl)c1O [10734/F03] | 86.8
7 | O=C1Nc2ccc(S(=O)(=O)N3CCOCC3)cc2C1=Cc1cc(Cl)ccc1O [10734/F04] | 76.5
8 | CCN(CC)c1ccc(C=C2C(=O)Nc3ccc(S(=O)(=O)N4CCOCC4)cc32)c(O)c1 [10734/F05] | 73.8
9 | O=C1Nc2ccc(S(=O)(=O)N3CCOCC3)cc2C1=Cc1ccc([N+](=O)[O-])cc1 [10734/F06] | 64.2
10 | O=C1Nc2ccc(S(=O)(=O)N3CCOCC3)cc2C1=Cc1cc(Br)cc(Br)c1O [10734/F07] | 95.7
11 | O=C1Nc2ccc(S(=O)(=O)N3CCOCC3)cc2C1=Cc1cccc(F)c1O [10734/F08] | 66.3
12 | O=C1Nc2ccc(S(=O)(=O)N3CCOCC3)cc2C1=Cc1ccc(O)c(Br)c1 [10734/F09] | 93.9
13 | CC(C)(C)c1ccc(C=C2C(=O)Nc3ccc(S(=O)(=O)N4CCOCC4)cc32)cc1 [10734/F10] | 44.8
14 | O=C1Nc2ccc(S(=O)(=O)N3CCOCC3)cc2C1=Cc1ccc(Br)s1 [10734/F11] | 47.3
15 | CCOc1cccc(C=C2C(=O)Nc3ccc(CCCl)cc32)c1O [10734/G02] | 63.6
16 | O=C1Nc2ccc(CCCl)cc2C1=Cc1cc(Cl)cc(Cl)c1O [10734/G03] | 93.4
17 | O=C1Nc2ccc(CCCl)cc2C1=Cc1cc(Cl)ccc1O [10734/G04] | 72.1
18 | CCN(CC)c1ccc(C=C2C(=O)Nc3ccc(CCCl)cc32)c(O)c1 [10734/G05] | 57.7
19 | O=C1Nc2ccc(CCCl)cc2C1=Cc1ccc([N+](=O)[O-])cc1 [10734/G06] | 43.1
20 | O=C1Nc2ccc(CCCl)cc2C1=Cc1cc(Br)cc(Br)c1O [10734/G07] | 96.6
21 | O=C1Nc2ccc(CCCl)cc2C1=Cc1cccc(F)c1O [10734/G08] | 82.2
22 | O=C1Nc2ccc(CCCl)cc2C1=Cc1ccc(O)c(Br)c1 [10734/G09] | 84.7
23 | CC(C)(C)c1ccc(C=C2C(=O)Nc3ccc(CCCl)cc32)cc1 [10734/G10] | 19.3
24 | O=C1Nc2ccc(CCCl)cc2C1=Cc1ccc(Br)s1 [10734/G11] | 20.2
25 | CCOc1cccc(C=C2C(=O)Nc3c(Br)cc(Br)c(C)c32)c1O [10734/H02] | 48.3
26 | Cc1c(Br)cc(Br)c2c1C(=Cc1cc(Cl)cc(Cl)c1O)C(=O)N2 [10734/H03] | 90.3
27 | Cc1c(Br)cc(Br)c2c1C(=Cc1cc(Cl)ccc1O)C(=O)N2 [10734/H04] | 64.2
